Values joined by “and” are separate entries in the source; they are usually repeats but may differ in a detail not shown here. Identical values can stand only once. “Also recorded” adds a separate entry of the source.
Experiments:
fire ants [1] = experiment: Field paired two-choice feeding bioassay (soybean oil consumption); assay type: in vivo, Solenopsis invicta
Description: (§1) Multiple-choice and a paired two-choice bioassays were used in this study. A schematic representation of the bioassay set-ups is depicted in FIG. 19. Soybean oil was used as a food source for all the bioassays (Great Value, purchased from Walmart in Greenville Mississippi). The feeding apparatus was a filtered 1-ml pipette tip with the part 0.5 cm below the filter removed. In multiple-choice bioassays, four to six concentrations of tested compounds were tested with untreated soybean oil as a control, and in two-choice bioassays, the compound at certain concentration was tested against the control oil or oil treated with known fire ant attractant. Eighty microliter soybean oil was loaded onto each filter. After being weighed, the apparatuses with oil were placed in the field for about 2 hours. The apparatuses were then collected and frozen under −40° C. to kill all ants. The apparatuses were weighed again after all ants were removed from the apparatuses. The difference in the weight of apparatuses before and after the feeding bioassays was the oil consumption. There were six to 10 replicates for each bioassay. Feeding sites were at least 10 m away from each other. The difference in oil consumption among/between treatment and control apparatuses was used to evaluate the effect of tested compound on the feeding of fire ants. For multiple-choice bioassays, a one-way ANOVA was performed to compare the effect of different concentrations of tested compound on the percentage of oil consumption. Tukey's HSD test was used for multiple comparisons. A paired t test was used in statistical analysis for the two-choice bioassays.
Five oxo fatty acid analogs were tested in the filed using two-choice or multiple-choice bioassays. Tested were 8-oxo-decanoic acid, 9-oxo-2-decenoic acid, 9-oxo-decanoic acid, 11-oxo-tridecanoic acid, and 12-oxo-tetradecanoic acid. Eight oxo-decanoic acid was tested in a multiple-choice bioassay at 6 different concentrations including 0.00 mg/g, 0.81 mg/g, 0.41 mg/g, 0.20 mg/g, 0.10 mg/g, and 0.05 mg/g. There were 10 replicates for the bioassay. For 9-oxo-2-decenoic acid, a two-choice bioassay was conducted with each of the following six concentrations: 0.39 mg/g, 0.197 mg/g, 0.098 mg/g, 0.049 mg/g, 0.025 mg/g, and 0.012 mg/g. There were 5 to 7 replicates for each two-choice bioassay. For 9-oxo-decanoic acid, a multiple-choice bioassay was conducted at six concentrations including 0.00 mg/g, 0.124 mg/g, 0.062 mg/g, 0.031 mg/g, 0.016 mg/g, and 0.007 mg/g. There were 11 replicates. For 11-oxo-tridecanoic acid, a multiple-choice bioassay was conducted at five concentrations including 0.00 mg/g, 7.71 mg/g, 3.86 mg/g, 1.93 mg/g, and 0.96 mg/g. There were 6 replicates. For 12-oxo-tetradecanoic acid, a multiple-choice bioassay was conducted at six concentrations including 0.00 mg/g, 1.15 mg/g, 0.58 mg/g, 0.29 mg/g, 0.14 mg/g, and 0.07 mg/g. There were 7 replicates.
The following paired two-choice bioassays were conducted: 1) 10-oxo-dodecanoic acid at 1.14 mg/g vs trans, trans-2,4-heptadienal at 0.19 mg/g; 2) 11-oxo-dodecanoic acid at 1.08 mg/g vs trans, trans-2,4-heptadienal at 0.19 mg/g; 3) 10-oxo-dodecanoic acid at 1.14 mg/g vs 2-ethyl-3,6 (5)-dimethylpyrazine at 0.004 mg/g; 4) 11-oxo-dodecanoic acid at 1.08 mg/g vs 2-ethyl-3,6 (5)-dimethylpyrazine at 0.004 mg/g. The results are shown in Table 2 below, and FIG. 29A to FIG. 29D.

fire ants [2] = experiment: Field multiple-choice feeding bioassay (soybean oil consumption); assay type: in vivo, Solenopsis invicta; conditions: for difference among treatments and control in oil consumption / feeding preference on soybean oil (one-way ANOVA): all tested concentrations of each compound in soybean oil, field multiple-choice; for concentration at which oil consumption was numerically the highest: multiple-choice bioassay of known attractants; for concentration at which the effect on oil consumption was statistically significant compared to the control oil: Tukey's HSD; for effect of different concentrations on oil consumption (one-way ANOVA): first multiple-choice bioassay: 10-oxo 9.09, 4.54, 2.27, 1.14 mg/g, 11-oxo 8.62, 4.31, 2.15, 1.08 mg/g
Description: as §1, with “bioassays. For each fatty acid, eight concentrations were tested in two separate multiple-choice bioassays. For 10-oxo-dodecnoic acid, the first set used in the multiple-choice bioassay included concentrations of 0.00 mg/g (control), 9.09 mg/g, 4.54 mg/g, 2.27 mg/g, and 1.14 mg/g, and the second set included 0.00 mg/g, […], 0.28 mg/g, 0.142 mg/g, and 0.07 mg/g. There were seven replicates for each set of bioassay. For 11-oxo-dodecnoic acid, the first set used in the multiple-choice bioassay included concentrations of 0.00 mg/g, 8.62 mg/g, 4.31 mg/g, 2.15 mg/g, and 1.08 mg/g, and the second set included 0.00 mg/g, 0.54 mg/g, 0.27 mg/g, 0.14 mg/g, and 0.07 mg/g. There were six replicates for the first set of bioassay and seven replicates for the second set of bioassay. Five oxo fatty acid analogs were tested in the filed using two-choice or multiple-choice bioassays. Tested were 8-oxo-decanoic acid, 9-oxo-2-decenoic acid, 9-oxo-decanoic acid, 11-oxo-tridecanoic acid, and 12-oxo-tetradecanoic acid. Eight oxo-decanoic acid was tested in a multiple-choice bioassay at 6 different concentrations including 0.00 mg/g, 0.81 mg/g, 0.41 mg/g, 0.20 mg/g, 0.10 mg/g, and 0.05 mg/g. There were 10 replicates for the bioassay. For 9-oxo-2-decenoic acid, a two-choice bioassay was conducted with each of the following six concentrations: 0.39 mg/g, 0.197 mg/g, 0.098 mg/g, 0.049 mg/g, 0.025 mg/g, and 0.012 mg/g. There were 5 to 7 replicates for each two-choice bioassay. For 9-oxo-decanoic acid, a multiple-choice bioassay was conducted at six concentrations including 0.00 mg/g, 0.124 mg/g, 0.062 mg/g, 0.031 mg/g, 0.016 mg/g, and 0.007 mg/g. There were 11 replicates. For 11-oxo-tridecanoic acid, a multiple-choice bioassay was conducted at five concentrations including 0.00 mg/g, 7.71 mg/g, 3.86 mg/g, 1.93 mg/g, and 0.96 mg/g. There were 6 replicates. For 12-oxo-tetradecanoic acid, a multiple-choice bioassay was conducted at six concentrations including 0.00 mg/g, 1.15 mg/g, 0.58 mg/g, 0.29 mg/g, 0.14 mg/g, and 0.07 mg/g. There were 7 replicates.” for “bioassays.”

fire ants [3] = conditions: Vander Meer et al., 2009; cited from earlier work
worker fire ants = experiment: Attraction bioassay (paired two choice, treated tube vs acetone control); assay type: in vivo, S. invicta; conditions: individual oxo acids, 20 μl acetone solution: 2.029 mg/ml 10-oxo-dodecanoic acid, 1.96 mg/ml 11-oxo-dodecanoic acid; host tray; 1 hour; paired t test
fire ants [4] = experiment: Feeding bioassay (laboratory paired two-choice, treated vs untreated soybean oil); assay type: in vivo, S. invicta; conditions: soybean oil with 1.90 μg/mg 10-oxo-dodecanoic acid, 7.273 μg/mg 11-oxo-dodecanoic acid, or 0.36 μg/mg mixture (38.12%/61.88%) vs untreated oil; 24 hours; paired t test
[5] = Bioassay 3: 10-oxo-dodecanoic acid 1.14 mg/g vs 2-ethyl-3,6 (5)-dimethylpyrazine 0.004 mg/g
[6] = Bioassay 3: 10-oxo-dodecanoic acid at 1.14 mg/g vs 2-ethyl-3,6 (5)-dimethylpyrazine at 0.004 mg/g
[7] = Bioassay 4: 11-oxo-dodecanoic acid 1.08 mg/g vs 2-ethyl-3,6 (5)-dimethylpyrazine 0.004 mg/g
[8] = Bioassay 4: 11-oxo-dodecanoic acid at 1.08 mg/g vs 2-ethyl-3,6 (5)-dimethylpyrazine at 0.004 mg/g
[9] = Bioassay 1: 10-oxo-dodecanoic acid 1.14 mg/g vs trans, trans-2,4-heptadienal 0.19 mg/g
[10] = Bioassay 1: 10-oxo-dodecanoic acid at 1.14 mg/g vs trans, trans-2,4-heptadienal at 0.19 mg/g
[11] = first multiple-choice bioassay (about 1 to 9 mg/g)
[12] = control 0.00 mg/g, field, about 2 hours
[13] = Bioassay 2: 11-oxo-dodecanoic acid 1.08 mg/g vs trans, trans-2,4-heptadienal 0.19 mg/g
[14] = Bioassay 2: 11-oxo-dodecanoic acid at 1.08 mg/g vs trans, trans-2,4-heptadienal at 0.19 mg/g

## 2-ethyl-3,6 (5)-dimethylpyrazine [reference compound]
Fire ants [1]; [5]
  difference in the effect on oil consumption between the two compounds: significantly higher oil consumption
Fire ants [1]; [6]
  Mean oil consumption: 19.53 mg
Fire ants [1]; [7]
  difference in the effect on oil consumption between the two compounds: significantly higher oil consumption
Fire ants [1]; [8]
  Mean oil consumption: 21.75 mg
Fire ants [2]
  difference among treatments and control in oil consumption / feeding preference on soybean oil (one-way ANOVA): significant difference
  concentration at which oil consumption was numerically the highest: 0.004 mg/g
Fire ants [2]; multiple-choice, 0.064 to 0.002 mg/g tested
  concentration that significantly improved the feeding preference of fire ant on soybean oil: 0.002 mg/g and 0.004 mg/g
Fire ants [3]
  concentration mostly preferred by fire ants: 30 ng/µL

## CCC(=O)CCCCCCC(=O)O [8-oxo-decanoic acid]
Fire ants [2]
  difference among treatments and control in oil consumption / feeding preference on soybean oil (one-way ANOVA): no significant difference

## CC(=O)CCCCCC=CC(=O)O [9-oxo-2-decenoic acid]
Fire ants [1]; 0.049 mg/g in soybean oil vs control
  feeding preference of fire ant on soybean oil: significantly improved

## CC(=O)CCCCCCCC(=O)O [9-oxo-decanoic acid]
Fire ants [2]
  difference among treatments and control in oil consumption / feeding preference on soybean oil (one-way ANOVA): no significant difference

## CCC(=O)CCCCCCCCC(=O)O [10-oxo-dodecanoic acid]
Fire ants [1]; [9]
  difference in the effect on oil consumption between the two compounds: no significant difference
Fire ants [1]; [10]
  Mean oil consumption: 23.84 mg
Fire ants [1]; [5]
  difference in the effect on oil consumption between the two compounds: significant difference
Fire ants [1]; [6]
  Mean oil consumption: 12.69 mg
Fire ants [2]; [11]
  concentration at which the effect on oil consumption was statistically significant compared to the control oil: 1.14 mg/g
Fire ants [2]; [12]
  effect of different concentrations on oil consumption (one-way ANOVA): significant effect
Fire ants [2]; second multiple-choice bioassay (0.07 to about 0.5 mg/g)
  concentration at which the effect on oil consumption was statistically significant compared to the control oil: 0.51 mg/g
Worker fire ants
  difference in the number of ants between treatment vials and control vials: significant
Fire ants [4]
  difference in oil consumption between treatment and control: significant

## CC(=O)CCCCCCCCCC(=O)O [11-oxo-dodecanoic acid]
Fire ants [1]; [13]
  difference in the effect on oil consumption between the two compounds: no significant difference
Fire ants [1]; [14]
  Mean oil consumption: 21.23 mg
Fire ants [1]; [7]
  difference in the effect on oil consumption between the two compounds: significant difference
Fire ants [1]; [8]
  Mean oil consumption: 15.8 mg
Fire ants [2]; dosage bioassays in soybean oil
  most active / most effective concentration: around 1.08 mg/g
Fire ants [2]; [11]
  concentration at which the effect on oil consumption was statistically significant compared to the control oil: 1.08 mg/g
Fire ants [2]; [12]
  effect of different concentrations on oil consumption (one-way ANOVA): significant effect
Fire ants [2]; second multiple-choice bioassay: 10-oxo 0.51, 0.28, 0.142, 0.07 mg/g, 11-oxo 0.54, 0.27, 0.14, 0.07 mg/g, control 0.00 mg/g, field, about 2 hours
  effect on oil consumption (one-way ANOVA): no significant effect
Worker fire ants
  difference in the number of ants between treatment vials and control vials: significant difference
Fire ants [4]
  difference in oil consumption between treatment and control: significant difference

## CCC(=O)CCCCCCCCCC(=O)O [11-oxo-tridecanoic acid]
Fire ants [2]
  difference among treatments and control in oil consumption / feeding preference on soybean oil (one-way ANOVA): no significant difference

## CCC(=O)CCCCCCCCCCC(=O)O [12-oxo-tetradecanoic acid]
Fire ants [2]
  difference among treatments and control in oil consumption / feeding preference on soybean oil (one-way ANOVA): no significant difference

## CC/C=C/C=C/C=O [trans, trans-2,4-heptadienal, reference compound]
Fire ants [1]; [9]
  difference in the effect on oil consumption between the two compounds: no significant difference
Fire ants [1]; [10]
  Mean oil consumption: 22.83 mg
Fire ants [1]; [13]
  difference in the effect on oil consumption between the two compounds: no significant difference
Fire ants [1]; [14]
  Mean oil consumption: 19.95 mg
Fire ants [2]
  difference among treatments and control in oil consumption / feeding preference on soybean oil (one-way ANOVA): did not significantly improve; also recorded: not significantly different
  concentration at which oil consumption was numerically the highest: 0.19 mg/g

Reference: patent US11944090B2, “Compositions and methods for attracting fire ants” (The United States of America, as represented by The …, priority 2021, dated 2024)
